Measurements taken from patent US20060052404A1, “Pharmaceutical formulations comprising substituted xanthine compounds” (priority 2001, published 2006).

Legend:
[1] = tested on: human epithelial cell line expressing the CFTR-ΔF508 mutation; details: cells having the CFTR-ΔF508 mutation; cited from earlier work
[2] = CPX absorption profiles of four suspension formulations in dogs, single oral dose; format: in vivo, male Beagle dogs; details: dog, 30 mg/kg oral
Method: Experimental—This study was designed to determine the relative bioavailability of a single oral CPX dose when administered by gavage to male Beagle dogs. The CPX dosages was administered in a single 30 mg/kg oral dose in four different suspension formulations. These suspension formulations were: • 1) xanthan gum (homogenized), • 2) sodium carboxymethylcellulose [NaCMC] (homogenized), • 3) sodium carboxymethylcellulose [NaCMC] (non-homogenized), and • 4) corn oil (homogenized).
Each formulation contained CPX at a nominal concentration of 60 mg/gram of suspension. […]
Whole blood samples were collected (approx. 3 ml/sample) by jugular venipuncture into sodium heparin-containing collection tubes. […] The whole blood was centrifuged to isolate plasma, and concentrations of CPX in the plasma at these time intervals were determined using high performance liquid chromatography (HPLC) with mass spectrometric detection, with a lower quantitation limit of 1 ng/ml.
The following pharmacokinetic parameters were determined for each experimental CPX formulation: • Cmax—maximum analyte concentration in the plasma, ng/ml • Tmax—time of maximum analyte concentration in the plasma • T1/2—terminal half-life of the drug • AUClast—area under the curve (AUC) from time 0 to the last measurable concentration. […] Expressed as ng·h/ml AUC(0∞)—area under the curve from time 0 to infinity (also written AUCinf or AUC∞)

isolated CFTR channels = isolated CFTR channels (Homo sapiens, UniProt P13569); details: in vitro lipid bilayers; cited from earlier work
Sequence of isolated CFTR channels (P13569 whole entry): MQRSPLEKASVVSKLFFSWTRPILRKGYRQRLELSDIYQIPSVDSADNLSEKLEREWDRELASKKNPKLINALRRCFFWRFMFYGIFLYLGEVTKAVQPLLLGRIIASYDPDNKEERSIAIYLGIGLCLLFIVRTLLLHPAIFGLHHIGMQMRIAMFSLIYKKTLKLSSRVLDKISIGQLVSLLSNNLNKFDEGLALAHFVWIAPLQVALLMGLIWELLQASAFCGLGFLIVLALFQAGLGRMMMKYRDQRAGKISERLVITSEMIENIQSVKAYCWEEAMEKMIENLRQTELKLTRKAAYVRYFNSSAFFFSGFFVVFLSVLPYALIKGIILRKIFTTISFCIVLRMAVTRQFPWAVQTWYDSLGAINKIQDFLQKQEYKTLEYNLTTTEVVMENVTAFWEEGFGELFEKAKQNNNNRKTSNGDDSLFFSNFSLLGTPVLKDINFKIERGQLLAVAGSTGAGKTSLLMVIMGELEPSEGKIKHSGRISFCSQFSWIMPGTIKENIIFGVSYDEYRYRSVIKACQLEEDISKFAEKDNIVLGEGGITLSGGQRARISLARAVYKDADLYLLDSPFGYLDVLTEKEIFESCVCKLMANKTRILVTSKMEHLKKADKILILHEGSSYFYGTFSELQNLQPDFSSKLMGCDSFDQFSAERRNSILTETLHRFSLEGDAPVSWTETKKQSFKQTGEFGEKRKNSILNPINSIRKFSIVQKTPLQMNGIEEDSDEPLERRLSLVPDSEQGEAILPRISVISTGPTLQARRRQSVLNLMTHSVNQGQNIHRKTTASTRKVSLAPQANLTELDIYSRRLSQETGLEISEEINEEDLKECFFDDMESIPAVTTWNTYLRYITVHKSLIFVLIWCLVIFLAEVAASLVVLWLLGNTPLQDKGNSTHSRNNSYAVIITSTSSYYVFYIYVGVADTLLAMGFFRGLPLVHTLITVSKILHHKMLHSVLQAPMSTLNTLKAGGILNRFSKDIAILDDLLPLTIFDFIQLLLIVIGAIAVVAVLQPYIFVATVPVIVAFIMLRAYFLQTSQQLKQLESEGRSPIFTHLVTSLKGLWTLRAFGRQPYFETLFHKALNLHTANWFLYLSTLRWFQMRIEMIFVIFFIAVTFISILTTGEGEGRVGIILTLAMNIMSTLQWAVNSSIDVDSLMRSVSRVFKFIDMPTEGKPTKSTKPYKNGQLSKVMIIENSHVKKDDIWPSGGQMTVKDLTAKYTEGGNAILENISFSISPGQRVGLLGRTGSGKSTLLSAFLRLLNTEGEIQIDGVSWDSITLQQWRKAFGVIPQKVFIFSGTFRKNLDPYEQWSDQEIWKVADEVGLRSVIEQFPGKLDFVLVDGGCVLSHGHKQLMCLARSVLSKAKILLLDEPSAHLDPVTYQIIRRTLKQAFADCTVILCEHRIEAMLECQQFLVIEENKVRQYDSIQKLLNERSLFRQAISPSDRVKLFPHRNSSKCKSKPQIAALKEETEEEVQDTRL

[3] = CPX absorption profile in rats, water vs corn oil formulation, single oral gavage; format: in vivo; details: rat, 1.4 mg/kg single oral gavage, during the course of the experiment
Method: Experimental—This study was designed to determine the pharmacokinetics of CPX bioavailability in blood plasma following a single oral administration by oral gavage to male Sprague-Dawley rats. The CPX compound was suspended in either a corn oil or water formulation and administered once via oral gavage at 10 ml/kg of rat weight to two groups of male Sprague-Dawley rats.
The rats were not fasted prior to blood collection. Approximately 0.4 ml of whole blood was collected from each animal into heparinized tubes via puncture of the orbital sinus under 70% CO2/30% O2 anesthesia. Approximately 0.2 ml of plasma was separated by centrifugation and analyzed for CPX concentration using high performance liquid chromatography (HPLC) with mass spectrometric detection. Following the completion of blood collection, all surviving animals were euthanized by carbon dioxide overdose.
Rat plasma CPX concentration as a function of time (in hours) using the two formulations was measured. Each rat in this experiment (n=10) received a 1.4 mg/kg CPX dose, which was equivalent to a 100 mg dose. Ten rats were used at each time point to generate a mean CPX concentration value.

A1 adenosine receptor = target: T1, A1 adenosine receptor (Homo sapiens, UniProt P30542); details: cited from earlier work
T1 sequence (P30542 1-326): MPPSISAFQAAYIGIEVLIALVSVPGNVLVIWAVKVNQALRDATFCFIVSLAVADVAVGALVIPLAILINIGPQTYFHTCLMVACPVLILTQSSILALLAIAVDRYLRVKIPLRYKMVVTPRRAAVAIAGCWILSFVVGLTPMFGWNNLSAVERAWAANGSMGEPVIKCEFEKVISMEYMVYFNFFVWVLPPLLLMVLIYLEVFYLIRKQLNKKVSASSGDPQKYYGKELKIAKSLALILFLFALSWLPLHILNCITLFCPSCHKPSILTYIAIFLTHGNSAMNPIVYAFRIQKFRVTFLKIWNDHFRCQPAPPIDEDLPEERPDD

[4] = Solubility of CPX in solvents tested; format: physicochemical; details: any of the solvents tested, despite use of co-solvents
From the text: This EXAMPLE describes the CPX formulations used in the present invention. Adequate solubility of CPX was unattainable in any of the solvents tested, even despite the use of co-solvents. This insolubility necessitated the use of the suspension and capsule formulations, as described below. One formulation was left non-homogenized to study the effect of homogenization on bioavailability.

[5] = tested on: cell derived from a cystic fibrosis patient; details: cited from earlier work
[6] = Mutagenicity and adverse side effects of oral doses in animal model systems; format: in vivo; details: oral doses to rat, guinea pig, mouse or dog model systems
NBF-1 region of CFTR = NBF-1 region of CFTR (Homo sapiens, UniProt P13569); details: cited from earlier work
Sequence of NBF-1 region of CFTR (P13569 423-646 limits assumed): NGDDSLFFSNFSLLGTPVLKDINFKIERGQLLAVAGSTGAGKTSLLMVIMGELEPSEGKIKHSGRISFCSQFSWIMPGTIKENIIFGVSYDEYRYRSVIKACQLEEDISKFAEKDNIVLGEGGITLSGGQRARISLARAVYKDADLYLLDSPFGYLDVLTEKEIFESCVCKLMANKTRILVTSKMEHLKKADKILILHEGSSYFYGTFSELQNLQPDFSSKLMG

CFTR-ΔF508 = CFTR-ΔF508 (Homo sapiens, UniProt P13569, DEL508-508); details: cited from earlier work
Sequence of CFTR-ΔF508 (P13569 with tags, fused parts or gaps DEL508-508): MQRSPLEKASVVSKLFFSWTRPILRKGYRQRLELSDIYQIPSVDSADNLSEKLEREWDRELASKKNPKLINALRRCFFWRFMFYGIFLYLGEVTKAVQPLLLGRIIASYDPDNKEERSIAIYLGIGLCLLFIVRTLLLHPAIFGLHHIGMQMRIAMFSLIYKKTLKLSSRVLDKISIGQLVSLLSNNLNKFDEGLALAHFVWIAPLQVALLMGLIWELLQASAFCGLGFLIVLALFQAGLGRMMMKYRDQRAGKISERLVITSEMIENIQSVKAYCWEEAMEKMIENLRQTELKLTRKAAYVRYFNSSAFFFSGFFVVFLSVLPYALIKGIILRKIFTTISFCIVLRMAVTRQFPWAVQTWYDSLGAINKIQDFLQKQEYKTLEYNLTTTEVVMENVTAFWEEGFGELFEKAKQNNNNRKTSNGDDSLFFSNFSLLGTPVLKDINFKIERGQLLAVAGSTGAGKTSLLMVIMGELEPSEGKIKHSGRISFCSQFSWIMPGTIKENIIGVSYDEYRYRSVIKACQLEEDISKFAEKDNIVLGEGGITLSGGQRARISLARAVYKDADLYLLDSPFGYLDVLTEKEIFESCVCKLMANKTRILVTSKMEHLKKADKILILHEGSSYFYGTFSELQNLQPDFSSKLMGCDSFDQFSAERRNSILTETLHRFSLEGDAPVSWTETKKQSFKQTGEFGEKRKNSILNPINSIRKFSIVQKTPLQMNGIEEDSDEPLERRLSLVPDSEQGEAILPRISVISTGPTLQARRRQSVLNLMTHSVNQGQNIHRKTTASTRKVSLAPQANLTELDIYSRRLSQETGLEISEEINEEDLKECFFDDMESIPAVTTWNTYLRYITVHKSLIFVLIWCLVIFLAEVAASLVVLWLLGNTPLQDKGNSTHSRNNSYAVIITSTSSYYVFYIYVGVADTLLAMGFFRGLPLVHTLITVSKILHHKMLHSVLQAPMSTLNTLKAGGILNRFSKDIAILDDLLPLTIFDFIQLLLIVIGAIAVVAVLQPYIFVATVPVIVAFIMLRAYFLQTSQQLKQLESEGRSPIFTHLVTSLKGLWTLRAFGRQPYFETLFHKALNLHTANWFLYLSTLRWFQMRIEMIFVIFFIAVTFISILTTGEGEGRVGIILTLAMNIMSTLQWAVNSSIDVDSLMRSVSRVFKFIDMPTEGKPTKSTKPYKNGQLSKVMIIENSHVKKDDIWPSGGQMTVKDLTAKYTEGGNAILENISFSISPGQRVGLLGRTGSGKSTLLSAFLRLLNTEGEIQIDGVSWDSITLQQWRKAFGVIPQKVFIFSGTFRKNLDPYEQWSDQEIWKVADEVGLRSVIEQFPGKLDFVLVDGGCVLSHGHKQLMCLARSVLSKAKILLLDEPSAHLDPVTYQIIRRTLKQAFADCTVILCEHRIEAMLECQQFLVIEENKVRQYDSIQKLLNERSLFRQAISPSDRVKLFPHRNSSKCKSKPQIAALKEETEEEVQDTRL

[7] = Adverse side effects of oral doses in human subjects; format: in vivo; details: oral doses to human subjects
CFTR-ΔF508 NBF-1 = CFTR-ΔF508 NBF-1 (Homo sapiens, UniProt P13569, DEL508-508); details: cited from earlier work
Sequence of CFTR-ΔF508 NBF-1 (P13569 with tags, fused parts or gaps DEL508-508 limits assumed): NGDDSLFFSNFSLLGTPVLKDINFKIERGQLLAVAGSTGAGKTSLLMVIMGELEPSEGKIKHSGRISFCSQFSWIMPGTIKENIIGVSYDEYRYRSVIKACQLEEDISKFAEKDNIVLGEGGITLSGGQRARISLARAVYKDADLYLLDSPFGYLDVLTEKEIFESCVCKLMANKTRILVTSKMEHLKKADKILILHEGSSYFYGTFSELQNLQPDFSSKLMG

Compound: CCCn1c(=O)c2[nH]c(-c3ccc(OCC(=O)NCCN)cc3)nc2n(CCC)c1=O [xanthine amino congener]
- chloride efflux [1]: activating chloride ion efflux

Compound: Cn1c(=O)c2c(nc(C3CCCCC3)n2C)n(C)c1=O [CHC, cyclohexylcaffeine]
- chloride efflux [1]: activating chloride ion efflux

Compound: CCCn1c(=O)c2[nH]c(C3CCCC3)nc2n(CCC)c1=O [CPX, 1,3-dipropyl-8-cyclopentylxanthine]
- time of measured peak concentrations of CPX in the plasma after oral dosing [2]: ≤ 5 h
- activation of isolated CFTR channels (isolated CFTR channels): activates
- mortality or signs of morbidity [3]: no mortality or signs of morbidity
- A1 adenosine receptor antagonism (A1 adenosine receptor): potent
- chloride efflux [1]: promotes chloride efflux
- adequate solubility [4]: unattainable
- chloride efflux [5]: activates
- mutagenicity or grossly apparent adverse side effects [6]: does not appear to display any mutagenicity or grossly apparent adverse side effects
- binding to the NBF-1 region of CFTR (NBF-1 region of CFTR): binds
- intracellular trafficking and maturation of CFTR-ΔF508 (CFTR-ΔF508): enhances
- apparent adverse side effects [7]: no apparent adverse side effects
- affinity for CFTR-ΔF508 NBF-1 versus wild-type CFTR NBF-1 (CFTR-ΔF508 NBF-1): greater

Compound: 1,3-dipropyl-7-methylcyclopenthylxanthine [DP-CPX]
- chloride efflux [1]: activating chloride ion efflux

Compound: C=CCn1c(=O)c2[nH]c(C3CCCCC3)nc2n(CC=C)c1=O [DAX, N,N-diallylcyclohexylxanthine]
- chloride efflux [1]: activating chloride ion efflux
